Test results from patent US12213973B2, “Bacterial nitric oxide synthase inhibitors” (Northwestern University, priority 2021, dated 2025).
“Also recorded” adds a separate entry of the source.

Legend:
bNOS (I218V) [1] = target: T1, bNOS (I218V) (Bacillus subtilis, UniProt O34453, I218V); experiment: IC50 determination with bBidomain construct, bNOS I218V; type: biochemical; design: YKuN (fusion partner); made in house; host or cells: E. coli BL21 (DE3)
Description: (§1) Enzyme activity for bsNOS and bsNOS I218V was measured using the bBidomain constructs, as described previously,^4,14 with some minor alterations. Reactions with bsNOS and bsNOS I218V were run for 8 min, whereas those with hiNOS and heNOS were run for 4 min, as this allowed for adequate signal before complete substrate depletion. hiNOS and heNOS reactions also had calmodulin added at 10× the protein concentration. Inhibitors were tested from 5 μM to 800 μM. IC50 values were calculated as previously described.^9
Target sequence in this assay (O34453 other isoform, or with tags, fused parts or gaps I218V): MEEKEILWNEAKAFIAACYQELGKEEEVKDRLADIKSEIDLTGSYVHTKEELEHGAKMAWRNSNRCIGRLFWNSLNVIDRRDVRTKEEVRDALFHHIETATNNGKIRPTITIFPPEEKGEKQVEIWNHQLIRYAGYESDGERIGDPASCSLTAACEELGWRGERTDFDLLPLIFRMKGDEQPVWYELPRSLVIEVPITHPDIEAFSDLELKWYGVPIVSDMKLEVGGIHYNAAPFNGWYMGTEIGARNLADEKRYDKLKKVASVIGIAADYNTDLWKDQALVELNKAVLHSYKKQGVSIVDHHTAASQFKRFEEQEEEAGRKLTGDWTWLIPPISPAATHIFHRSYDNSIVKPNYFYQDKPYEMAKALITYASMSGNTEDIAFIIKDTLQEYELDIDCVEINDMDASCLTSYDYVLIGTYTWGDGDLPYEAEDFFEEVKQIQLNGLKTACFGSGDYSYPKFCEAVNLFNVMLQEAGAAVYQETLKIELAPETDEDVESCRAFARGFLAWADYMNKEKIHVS

bNOS (I218V) [2] = target: T1, bNOS (I218V); experiment: Imidazole displacement assay (spectral binding, Ks), bNOS I218V mutant; design: made in house; host or cells: E. coli BL21 (DE3); settings: for decrease in inhibitor specificity between wild type (WT) and the I218V mutant (increase in KS): KS I218V versus KS WT
Description: (§2) The KS value for each ligand was then calculated from KS,app as previously described,^4,14 using the KD of imidazole to bsNOS, bsNOS I218V, hiNOS, and heNOS and normalized to L-Arg.
Target sequence in this assay (O34453 whole entry I218V, the tested form may be a part): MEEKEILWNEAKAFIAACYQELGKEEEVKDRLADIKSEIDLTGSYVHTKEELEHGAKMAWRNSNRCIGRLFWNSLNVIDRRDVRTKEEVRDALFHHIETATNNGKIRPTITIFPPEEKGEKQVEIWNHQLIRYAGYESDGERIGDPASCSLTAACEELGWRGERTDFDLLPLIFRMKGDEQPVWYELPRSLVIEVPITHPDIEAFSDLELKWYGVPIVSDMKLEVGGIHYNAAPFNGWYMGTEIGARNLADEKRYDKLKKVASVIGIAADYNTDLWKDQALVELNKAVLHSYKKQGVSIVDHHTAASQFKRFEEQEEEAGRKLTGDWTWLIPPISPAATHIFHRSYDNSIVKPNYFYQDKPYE

bNOS WT (bsNOS) [3] = target: T2, bNOS WT (bsNOS) (Bacillus subtilis, UniProt O34453); experiment: IC50 determination with bBidomain construct, bNOS WT; type: biochemical; design: YKuN (fusion partner); made in house; host or cells: E. coli BL21 (DE3)
Description: as §1
Target sequence in this assay (O34453 other isoform, or with tags, fused parts or gaps): as the sequence (O34453 other isoform, or with tags, fused parts or gaps I218V) above, with V218I counted along it

[4] = target: human endothelial NOS (heNOS) (Homo sapiens, UniProt P29474); experiment: IC50 determination, heNOS; type: biochemical; settings: for isoform selectivity heNOS/bNOS (in parentheses): ratio of IC50 heNOS to IC50 bNOS WT
Description: as §1

bNOS WT (bsNOS) [5] = target: T2, bNOS WT (bsNOS); experiment: Imidazole displacement assay (spectral binding, Ks), bNOS WT; design: made in house; host or cells: E. coli BL21 (DE3)
Description: as §2
Target sequence in this assay (O34453 whole entry, the tested form may be a part): as the sequence (O34453 whole entry I218V, the tested form may be a part) above, with V218I counted along it

[6] = target: human inducible NOS (hiNOS) (Homo sapiens, UniProt P35228); experiment: IC50 determination, hiNOS; type: biochemical; settings: for isoform selectivity hiNOS/bNOS (in parentheses): ratio of IC50 hiNOS to IC50 bNOS WT
Description: as §1

[7] = system: MRSA in infected macrophage cells; experiment: Macrophage MRSA killing assay; type: cell-based; settings: for MRSA killing activity in infected macrophage cells: FIG. 5; for MRSA killing activity compared with QJ13: FIG. 5B
Description: Bone marrow was isolated, red blood cells lysed with ACK buffer (Gibco), and plated on non-tissue culture treated dishes (Fisher) in DMEM media (Hyclone) supplemented with 2 mM L-glutamine (Corning), 100 U/mL pen-strep (Hyclone), 10% fetal bovine serum (OmegaScientific), and 10% cell conditioned media from CMG14-12 cells as a source of CSF. Macrophages were isolated after 6 days of differentiation and stored frozen in liquid nitrogen. One day prior to assay, macrophages were thawed and plated in flat-bottomed 96-well culture plates (VWR) at 50-70,000 cells per well in antibiotic-free DMEM media supplemented with 10% fetal bovine serum and L-glutamine.
Bacteria and inhibitors or vehicle control were added to each well. The plate was spun down for 5 min, 1500 rpm, 25° C. to bring bacteria in contact with the macrophages. The plate was incubated for 1 h at 37° C. with 5% CO2. The plate was spun down for 5 min, 1500 rpm, 25° C. The supernatant was pipetted off and discarded. Cells were lysed with 2% Triton-X 100 for 15 min. MTT in LB (100 μL of 1 mg/mL) was added to each well and plates were incubated for 2 h at 37° C. MTT was solubilized in DMSO, and plates were read at 540 nm. Killing was normalized to untreated bacteria. Empty wells with known bacteria quantities were used as a positive control.

human eNOS (heNOS) = target: T3, human eNOS (heNOS) (Homo sapiens, UniProt P29474); experiment: Hemoglobin NO capture assay, heNOS; type: biochemical; settings: for Ki: from IC50 by Cheng-Prusoff, 10 μM L-Arg; for eNOS/nNOS selectivity: ratio of Ki heNOS to Ki hnNOS
T3 construct: made in house; host or cells: Escherichia coli
Description: (§3) The NOS inhibitory activity of the compounds was measured by the hemoglobin (Hb) NO capture assay following a protocol described previously.^1-2 The production of NO was monitored by a rapid oxidation of oxyhemoglobin (oxyHb) to methemoglobin (metHb) by NO.^1 Purified recombinant NOSs, human nNOS (hnNOS), and human eNOS (heNOS),^3 are used in all activity assays. They were expressed in Escherichia coli and purified as previously reported. In brief, the assay was performed in 100 mM HEPES (4-(2-hydroxyethyl)-1-piperazine-ethanesulfonic acid) buffer with 10% glycerol (pH 7.4-7.5) at 37° C. in the presence of 10 μM L-Arg, 10 μM H4B, 100 μM NADPH, 0.83 mM CaCl2), 320 units/mL calmodulin, and 3 μM human oxyhemoglobin. A concentration of L-Arg of 10 μM was used as it is sufficient not to cause NOS uncoupling and is close to the Km values of all three NOS isoforms where competitive inhibitors can be detected effectively. The assay was performed in 96-well plates using a Biotek Gen5 microplate reader. The NOS enzymes and hemoglobin were dispensed automatically by the plate reader. NO production was kinetically monitored at 401 nm for 6 min. The inhibition constants (Ki) for all NOSs were calculated from the IC50 values of the dose-response curves using the Cheng-Prusoff equation,^4
(§4) [formula] where Km is the Michaelis constant. […] The calculated standard deviations from dose-response curves of the assays were less than 10% with all NOSs.

human nNOS (hnNOS) = target: T4, human nNOS (hnNOS) (Homo sapiens, UniProt P29475); experiment: Hemoglobin NO capture assay, hnNOS; type: biochemical; settings: from IC50 by Cheng-Prusoff, 10 μM L-Arg
T4 construct: made in house; host or cells: Escherichia coli
Description: as §3, §4

hiNOS = hiNOS (Homo sapiens, UniProt P35228); experiment: Griess assay IC50, hiNOS; type: biochemical; settings: IC50 value from Griess assay

| SMILES | IC50 (bNOS (I218V) [1]) [µM] | Kd (bNOS (I218V) [2]) [µM] | IC50 (bNOS WT (bsNOS) [3]) [µM] | IC50 [4] [µM] | isoform selectivity heNOS/bNOS (in parentheses) [4] | Kd (bNOS WT (bsNOS) [5]) [µM] | IC50 [6] [µM] | isoform selectivity hiNOS/bNOS (in parentheses) [6] | decrease in inhibitor specificity between wild type (WT) and the I218V mutant (increase in KS) (bNOS (I218V) [2]) [fold] | MRSA killing activity in infected macrophage cells [7] | MRSA killing activity compared with QJ13 [7] | Ki (human eNOS (heNOS)) [µM] | eNOS/nNOS selectivity (human eNOS (heNOS)) | Ki (human nNOS (hnNOS)) [µM] | MRSA killing ([7]; at ~50 μM concentration) | IC50 (hiNOS) [µM] |
| --- | --- | --- | --- | --- | --- | --- | --- | --- | --- | --- | --- | --- | --- | --- | --- | --- |
| Nc1ccc2ccc(COc3cccc(CNCc4ccccn4)c3)cc2n1 [Compound 4, 7-((3-(((pyridin-2-ylmethyl)amino)methyl)phenoxy)methyl)quinolin-2-amine] | 86 | 58.9 | 40 | 475 | 12 | 32 | 143 | 4 | – | – | – | – | – | – | – | – |
| Nc1cccc(CNCc2cccc(OCc3ccc4ccc(N)nc4c3)c2)n1 [Compound 5, 7-((3-((((6-aminopyridin-2-yl)methyl)amino)methyl)phenoxy)methyl)quinolin-2-amine] | 114 | 40 | 28 | 307 | 11 | 2.3 | 318 | 11 | 17 | exhibited killing activity; also recorded: showed efficacy only at higher concentrations | superior killing activity | – | – | – | – | – |
| Nc1cccc(CNCCOc2cccc(OCc3cccc(N)n3)c2)n1 [PW-III-25] | – | – | – | – | – | – | – | – | – | – | – | 340 | 102 | 3.3 | – | – |
| Nc1cccc(CCCCNCc2cccc(OCc3ccc4ccc(N)nc4c3)c2)n1 [Compound 8, 7-((3-(((4-(6-aminopyridin-2-yl)butyl)amino)methyl)phenoxy)methyl)quinolin-2-amine] | 9.2 | 6.3 | 6.1 | 126 | 21 | 6.3 | 24 | 4 | – | – | – | – | – | – | – | – |
| Nc1cccc(CCc2cccc(OCc3ccc4ccc(N)nc4c3)c2)n1 [Compound 3, 7-((3-(2-(6-aminopyridin-2-yl)ethyl)phenoxy)methyl)quinolin-2-amine] | 31.2 | 23.5 | 23.1 | > 500 | – | 29.9 | 435 | 19 | – | – | – | – | – | – | – | – |
| Nc1cccc(CNCCOc2cccc(OCc3ccc4ccc(N)nc4c3)c2)n1 [Compound 9, 7-((3-(2-(((6-aminopyridin-2-yl)methyl)amino)ethoxy)phenoxy)methyl)quinolin-2-amine] | 228 | 24.6 | 26.5 | 493 | 19 | 2.25 | 350 | 13 | 11 | exhibited killing activity | superior MRSA killing activity | – | – | – | about 50% | – |
| Nc1ccc2ccc(COc3cccc(CNCc4ccccn4)c3)cc2n1 [PW-I-101] | – | – | – | – | – | – | – | – | – | – | – | 19.8 | 900 | 0.022 | – | 143 |
| Nc1ccc2ccc(COc3cccc(CNCCc4ccccn4)c3)cc2n1 [Compound 6, 7-((3-(((2-(pyridin-2-yl)ethyl)amino)methyl)phenoxy)methyl)quinolin-2-amine] | 63.8 | 31.9 | 21.6 | – | – | 22.6 | 396 | 18 | – | – | – | – | – | – | – | – |
| COC(=O)[C@@H](N)CCCNC(=N)N[N+](=O)[O-] [L-NAME, reference compound] | – | – | – | – | – | – | – | – | – | no effect | – | – | – | – | – | – |
| Nc1cccc(CCCCNCc2cccc(OCc3ccc4ccc(N)nc4c3)c2)n1 [PW-I-103] | – | – | – | – | – | – | – | – | – | – | – | 1.96 | 51 | 0.038 | – | 24 |
